Reference: patent publication US9211326B2, “Method of enhancing the proliferative phase of a primary T cell response” (Tampa Bay Research Institute, priority 2013, dated 2015)
“Also recorded” adds a separate entry of the source.

Legend:
IFNg = system: IFNg; set-up: species or system Balb/c mice; conditions: mouse, in vivo
Bcl-2 [1] = system: Bcl-2; set-up: species or system Balb/c mice; conditions: mouse, in vivo
Bcl-2 mRNA = assay: qPCR gene expression in lymph node cells: Bcl-2; set-up: species or system Balb/c mice; conditions: mouse, in vivo
Vβ8+ T cells [2] = system: Vβ8+ T cells; set-up: species or system Balb/c mice; conditions: mouse, in vivo
IL-2 = system: IL-2; set-up: species or system Balb/c mice; conditions: mouse, in vivo
Vβ8+ T cells [3] = system: Vβ8+ T cells; set-up: species or system Balb/c mice; conditions: mouse, in vivo; remark: listed apart in the source
IL-12p70 = system: IL-12p70; set-up: species or system Balb/c mice; conditions: mouse, in vivo
Bcl-xL mRNA = assay: qPCR gene expression in lymph node cells: Bcl-xL; set-up: species or system Balb/c mice; conditions: mouse, in vivo
Bax mRNA = system: Bax mRNA; set-up: species or system Balb/c mice; conditions: mouse, in vivo
Bcl-2 [4] = conditions: cited from earlier work

| Compound | serum IFNg level (IFNg) | intracellular Bcl-2 protein per Vβ8+ T cell (Bcl-2 [1]) | Bcl-2 mRNA level in lymph nodes (Bcl-2 mRNA) | numbers of CD3+/CD8+/Vβ8+ T cells (Vβ8+ T cells [2]) | serum IL-2 level (IL-2) | percentage of Annexin V positive Vβ8+ T cells (Vβ8+ T cells [3]) | serum IL-12p70 level (IL-12p70) | Bcl-xL mRNA level in lymph nodes (Bcl-xL mRNA) | Bax mRNA level in lymph nodes (Bax mRNA) | ROS induced decline in Bcl-2 (Bcl-2 [4]) |
| --- | --- | --- | --- | --- | --- | --- | --- | --- | --- | --- |
| Staphylococcal enterotoxin B [SEB] | significant increase | equally reduced amounts | suppressed; also recorded: reduction | remained elevated | significant increase | significantly enhanced | significant increase | suppressed; also recorded: reduced | did not appear to be significantly affected | – |
| O=C(O)c1ccc(/C2=C3\C=CC(=N3)/C(c3ccc(C(=O)O)cc3)=c3/cc/c4[n]3[Mn]([Cl])[n]3c2ccc3/C(c2ccc(C(=O)O)cc2)=C2/C=CC(=N2)\C=4c2ccc(C(=O)O)cc2)cc1 [MnTBAP] | – | – | – | – | – | – | – | – | – | reversed |
